Reference: US20080255134A1 (Artesian Therapeutics, Inc., priority 2004, published 2008)
pIC50: −log10 of the molar value.

Tests used:
[1] = system: White New Zealand male rabbits; assay: In vivo β-adrenergic blockade, isoproterenol challenge (Protocol 1); set-up: species or system rabbit; dose or concentration left out as unconfirmed; settings: during isoproterenol challenge, intravenous, FIG. 10
[2] = target: T1, human recombinant beta-1 receptors (Homo sapiens, UniProt P08588); assay: β1-receptor radioligand binding, [125I] iodocyanopindolol, CHO-REX16 cells; settings: at 100 nM
T1 construct: expressed in transfected cells; host or cells: CHO-REX16 cells
Method: […] receptor binding was measured in human recombinant beta-1 receptors expressed in CHO-REX16 cells, using [^125I] (-) iodocyanopindolol (2000 Ci/mmol) as the radioligand, as described in Kalaria et al., J. Neurochem. 53: 1772-81 (1998), and Minneman et al., Mol. Pharmacol. 16: 34-46 (1979).

β1-adrenergic receptor = target: T2, β1-adrenergic receptor (Rattus norvegicus, UniProt P18090); assay: β1-adrenergic radioligand binding assay using rat cortical membranes
T2 construct: from tissue; host or cells: rat cortical membranes
Method: (§1) Non-selective β-adrenergic and β1-adrenergic radioligand binding assays were performed using rat cortical membranes; β2-adrenergic receptor assays were performed using membranes isolated from CHO cells expressing human, recombinant b2-adrenergic receptor; non-selective α1-adrenergic receptor assays were performed using rat forebrain membranes; and PDE3 binding assays were performed on human platelets. Values in percent illustrate percent inhibition at 1000 nM concentration.

α1-adrenergic receptor = assay: Non-selective α1-adrenergic receptor assay using rat forebrain membranes; type: binding
Method: as §1, with “The ability of Compounds 25 and 8c to inhibit PDE3 and β-adrenergic receptor activity was examined both in vitro and in vivo. […] Non-selective” for “Non-selective”

[3] = system: naive anesthetized canines; assay: Contractility in naive anesthetized canines (protocol 2); type: in vivo, canine; settings: administered alone (protocol 2), FIG. 17

T1 sequence (P08588 whole entry): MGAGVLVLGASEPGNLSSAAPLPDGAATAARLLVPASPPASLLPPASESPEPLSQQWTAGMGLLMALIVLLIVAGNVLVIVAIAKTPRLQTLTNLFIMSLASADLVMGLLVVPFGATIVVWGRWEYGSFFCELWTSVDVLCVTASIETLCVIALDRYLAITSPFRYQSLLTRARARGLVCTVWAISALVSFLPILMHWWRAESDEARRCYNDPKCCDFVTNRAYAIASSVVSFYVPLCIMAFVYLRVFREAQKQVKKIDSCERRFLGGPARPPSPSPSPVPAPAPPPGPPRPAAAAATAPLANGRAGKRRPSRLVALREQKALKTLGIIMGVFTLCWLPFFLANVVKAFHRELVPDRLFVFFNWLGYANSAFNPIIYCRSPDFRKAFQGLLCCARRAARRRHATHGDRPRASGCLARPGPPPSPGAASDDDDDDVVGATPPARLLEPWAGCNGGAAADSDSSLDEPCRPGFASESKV
T2 sequence (P18090 whole entry): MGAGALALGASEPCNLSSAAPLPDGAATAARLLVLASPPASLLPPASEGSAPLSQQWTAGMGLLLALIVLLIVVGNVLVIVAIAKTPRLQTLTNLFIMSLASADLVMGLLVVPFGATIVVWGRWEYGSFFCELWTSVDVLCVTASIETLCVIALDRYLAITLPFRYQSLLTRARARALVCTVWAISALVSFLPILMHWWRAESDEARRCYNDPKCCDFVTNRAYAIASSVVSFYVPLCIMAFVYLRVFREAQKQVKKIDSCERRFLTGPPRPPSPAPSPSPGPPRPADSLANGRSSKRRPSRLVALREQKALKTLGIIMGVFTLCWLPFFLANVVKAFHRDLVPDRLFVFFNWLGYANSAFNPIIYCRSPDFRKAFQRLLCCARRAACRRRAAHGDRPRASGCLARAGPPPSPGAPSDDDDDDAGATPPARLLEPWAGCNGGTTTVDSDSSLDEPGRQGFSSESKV

inhibition at 0.1 µM [2]: > 25% | pIC50 (β1-adrenergic receptor): 8.70 | pIC50 (α1-adrenergic receptor): 6.46
Compound: O=C1CCC(c2ccc(OCCNCC(O)COc3cccc4[nH]c5ccccc5c34)c(Cl)c2)=NN1 (racemic) [Compound 25, 6-(4-{2-[3-(9H-Carbazol-4-yloxy)-2-hydroxy-propylamino]-ethoxy}-3-chloro-phenyl)-4,5-dihydro-2H-pyridazin-3-one]
β-adrenergic antagonism on left ventricular contractility [1]: potent dose-dependent β-adrenergic antagonism | contractility in naive anesthetized canines [3]: increased contractility in a dose-dependent manner
